In patent US20100105054A1, “GENE EXPRESSION IN DUCHENNE MUSCULAR DYSTROPHY” (CINCINNATI CHILDREN'S HOSPITAL MEDICAL CENTER, priority 2008, published 2010):
Entries after “also recorded” stand apart in the source; their conditions may differ. Read-outs that look alike come from different tables or passages of the source.

What was measured:
myasthenia gravis = settings: compared to prednisone; cited from earlier work
individuals with DMD = settings: cited from earlier work; for muscle function and strength in individuals with DMD: humans with DMD
[1] = tested on: gene expression in peripheral blood; assay: Whole genome microarray of peripheral whole blood RNA, DMD administered deflazacort vs DMD administered prednisone; assay type: in vivo, human
Procedure: (§1) Of the 34 individuals with DMD, 14 were administered either prednisone (PRED, n=6) or deflazacort, an oxazoline derivative of prednisolone (DEFL, n=8) at the time blood samples for gene expression evaluation were obtained. The mean duration of administration of either prednisone or deflazacort for these 14 individuals was 43.9 months. Of the 34 individuals with DMD, 20 individuals had not been administered either prednisone or deflazacort at the time blood samples for gene expression evaluation were obtained.
(§2) Sample processing and array hybridization, probe-level data analysis, and statistical analysis were identical to Example 1.

[2] = tested on: gene expression in peripheral blood; assay: Whole genome microarray of peripheral whole blood RNA, DMD administered prednisone or deflazacort vs DMD not administered steroid; assay type: in vivo, human; settings: for KFL10 expression: individuals administered prednisone, deflazacort, or both vs DMD not administered any agent; for KFL10 expression / CD163 nucleic acid expression / FKBP5 expression / expression of genes in the chondroitin sulfate biosynthesis pathway / haptoglobin nucleic acid expression / lactotransferrin expression / lipocalin expression: blood; for CD163 nucleic acid expression / FKBP5 expression / expression of genes in the chondroitin sulfate biosynthesis pathway / haptoglobin nucleic acid expression / lactotransferrin expression / lipocalin expression: pooled deflazacort or prednisone group vs DMD not administered; for genes with significantly different expression: pooled group administered either prednisone or deflazacort vs DMD not administered, fold change >|1.5|, unpaired t-test, p<=0.05; for genes with down-regulated expression levels / genes with up-regulated expression levels: pooled prednisone or deflazacort group vs DMD not administered, of the 524 genes
Procedure: Individuals with DMD were evaluated and had been diagnosed by a single board-certified pediatric neurologist. The diagnosis of DMD was based in part upon clinical history, examination findings, and selected muscle biopsies and was confirmed by molecular diagnostic testing.
as §1, §2

mdx mouse = settings: cited from earlier work; for muscle strength: dystrophin deficient mdx mice
[3] = tested on: dystrophin deficient Caenorhabditis elegans; settings: dystrophin deficient C. elegans; cited from earlier work
[4] = deflazacort compared to prednisone, of the 508 genes
[5] = DMD individuals receiving deflazacort
[6] = individuals with DMD administered prednisone, blood

Structure (SMILES)	muscle function and strength in individuals with DMD (individuals with DMD)	KFL10 expression [2]	CD163 nucleic acid expression [2]	FKBP5 expression [2]	expression of genes in the chondroitin sulfate biosynthesis pathway [2]	haptoglobin nucleic acid expression [2]	lactotransferrin expression [2]	lipocalin expression [2]	genes with significantly different expression [2]	genes with down-regulated expression levels [2]	genes with up-regulated expression levels [2]	muscle strength (mdx mouse)	CD-11 inflammatory cells in mdx muscle (mdx mouse)	muscle degeneration [3]	further results
Cn1cnc([N+](=O)[O-])c1Sc1ncnc2nc[nH]c12 [azathioprine]	does not improve DMD; also recorded: no improvement	–	–	–	–	–	–	–	–	–	–	–	–	–	immunosuppressant effectiveness (myasthenia gravis): less effective immunosuppressant
CC(=O)OCC(=O)[C@@]12N=C(C)O[C@@H]1C[C@H]1[C@@H]3CCC4=CC(=O)C=C[C@]4(C)[C@H]3[C@@H](O)C[C@@]12C [deflazacort]	improved muscle function and strength	up-regulated	up-regulated expression levels	up-regulated expression levels	up-regulated expression levels	up-regulated expression levels	increased expression levels	increased expression levels	524 genes	127 genes	397 genes	–	–	–	genes significantly different ([1]; DMD administered deflazacort compared to DMD administered prednisone, fold change >=|1.5|, unpaired t-test, p<=0.05, peripheral blood): 508 genes; changes in gene expression ([1]; deflazacort compared to prednisone): fewer changes in gene expression; expression of retinoic acid receptor a (RARa) ([1]; deflazacort compared to prednisone, blood): significantly up-regulated; genes significantly down-regulated [1, 4]: 478 genes; genes significantly up-regulated [1, 4]: 30 genes; side effects (individuals with DMD; [5]): fewer side effects; weight gain (individuals with DMD; [5]): less weight gain
C[C@]12C=CC(=O)C=C1CC[C@@H]1[C@@H]2[C@@H](O)C[C@@]2(C)[C@H]1CC[C@]2(O)C(=O)CO [prednisolone]	improve function	–	–	–	–	–	–	–	–	–	–	improve muscle strength	decrease	reduce muscle degeneration	–
C[C@]12C=CC(=O)C=C1CC[C@@H]1[C@@H]2C(=O)C[C@@]2(C)[C@H]1CC[C@]2(O)C(=O)CO [prednisone]	improved muscle function and strength	up-regulated	up-regulated expression levels	up-regulated expression levels	up-regulated expression levels	up-regulated expression levels	increased expression levels	increased expression levels	524 genes	127 genes	397 genes	improve muscle strength	decrease	reduce muscle degeneration	KFL10 expression in the mdx mouse (mdx mouse; following six weeks of prednisone administration): up-regulated; interleukin 1 beta expression [1, 6]: up-regulated; interleukin 1 receptor antagonist expression [1, 6]: up-regulated; interleukin 6 receptor expression [1, 6]: up-regulated; expression of genes related to lipid metabolism, particularly in adipose tissue ([1]; prednisone compared to deflazacort, blood): up-regulated; muscle function and strength in individuals with DMD (individuals with DMD; listed as Prednisone): improve function
